Results from patent publication US20160331775A1, “E-SELECTIN INHIBITION WORKS IN COMBINATION WITH LOW-MOLECULAR WEIGHT HEPARIN TO DECREASE VENOUS THROMBOSIS AND BLEEDING RISK” (THE REGENTS OF THE UNIVERSITY OF MICHIGAN, priority 2015, published 2016).

Test: tail vein bleeding time
Assay type: in vivo, mouse
Settings: GMI-1271 alone, 20/kg IP BID; non-treated controls 53.8±7.5; not significantly elevated

tail bleeding time: 67.00 ± 44 s
SMILES: CC[C@H]1C[C@@H](C(=O)NCCNC(=O)CCOCCOCCOCCOCCOCCOCCOCCOCCOCCOCCOCCOC)C[C@@H](O[C@@H]2O[C@H](CO)[C@H](O)[C@H](O[C@@H](CC3CCCCC3)C(=O)[O-])[C@H]2NC(C)=O)[C@@H]1O[C@@H]1O[C@@H](C)[C@@H](O)[C@@H](O)[C@@H]1O.[Na+] [GMI-1271]
